Results taken from PMC3909264, “A Novel Acylaminoimidazole Derivative, WN1316, Alleviates Disease Progression via Suppression of Glial Inflammation in ALS Mouse Model” (PLoS ONE, 2014).
Structures can show the parent of a compound that is named as a salt. Where two headings read alike, the source gives them in different places.

Columns and labels:
HO-1 mRNA = experiment: qRT-PCR of HO-1 mRNA in lumbar spinal cord of wild type mice; assay type: in vivo, mouse (C57BL/6N); conditions: 100 µg/kg oral, 3 h post-administration
Procedure: Wild type mice at 8 weeks of age (male, C57BL/6N) were administered per os with either vehicle (physiological saline) or WN1316 (100 µg/kg body weight). After 1 h, 3 h, 6 h and 9 h, mice were transcardially perfused with physiological saline containing 10% heparin under anesthesia with 2% isoflurane by inhalation, and the lumbar spinal cord was dissected. Total RNA was extracted from lumbar spinal cord using Sepasol-RNA I Super G (Nacalai Tesque), and purified by SV Total RNA Isolation System (Promega) according to manufacturer's instructions. qRT-PCR was performed with QuantiFast™ SYBR Green RT-PCR Kit (QIAGEN) on CFX96 (BIO RAD). The PCR primers (QuantiTect Primer Assays) for HO-1 (Mm_Hmox1_1_SG) and PPIA (Mm_Ppia_1_SG) were purchased from QIAGEN. The levels of all transcripts were normalized for the PPIA mRNA level in each sample. Relative expression was calculated using the ΔΔCt method (Livak 2001).

[1] = Complexing with protein in rat serum; assay type: in vitro ADME; conditions: rat sera, unpublished data
[2] = Pharmacokinetics of WN-compounds in mice (brain and serum concentration, HPLC); assay type: in vivo, mouse (C57BL/6N); conditions: for Cmax: C57BL/6N mouse, oral 50 mg/kg body weight
Procedure: Wild type mice at 8 weeks (male, C57BL/6N) were used for the analysis of CPN-9, WN1303R, WN1312, WN1315 and WN1316 pharmacokinetics. CPN-9 was suspended in 0.5% carboxymethyl cellulose (CMC)-Na (carmellose sodium, Maruishi Pharmaceutical Co., Ltd.), while WN1303R, WN1312 and WN1316 were dissolved in Milli-Q purified water (MQ water) and WN1315 was dissolved in 0.25 N HCl. CPN-9 (100 mg/kg body weight) and the four WN-compounds (50 mg/kg body weight) were injected intragastrically (i.g.). After 15 min, 30 min, 1 h, 2 h, 4 h, 6 h, and 8 h, blood was collected from heart of each mouse anesthetized with 2% isoflurane by inhalation or 4% halothane in a mixture of N2O/O2 (70∶30). Mice were thereafter perfused transcardially with physiological saline containing 10% heparin under anesthesia, and the whole brain was removed. Each blood sample was centrifuged at 1,000×g for 10 min at 4°C, and the serum fraction was collected. The brain was frozen in liquid nitrogen, and was cryopreserved until use.
We mixed serum with deproteinization buffer (0.05 M H2SO4, 2.5 M K2CO3, and […]), and collected the organic layer after centrifugation at 1,500×g for 10 min. The organic layer was mixed with 0.05 M H2SO4, and then, after centrifugation at 1,500×g for 10 min, the water layer was collected. After the addition of methanol, each serum derived sample was subjected to HPLC.
Mouse whole brain was homogenized with acetonitrile and left at −80°C for 10 min. The supernatant was collected after centrifugation at 10,000×g for 10 min at 4°C and was dried under vacuum. The dried sample was re-dissolved in methanol and mixed with two volumes of 10 mM phosphate buffer (pH7.0), after which the supernatant was collected by centrifugation at 10,000×g for 10 min at 4°C and then left at −80°C for 10 min. To further remove debris, the supernatant was filtered (0.45 µm filter), centrifuged (at 10,000×g for 10 min at 4°C), filtered (0.22 µm filter) and finally centrifuged again. Each sample solution from brain was subjected to HPLC.
The concentrations of CPN-9 and WN1316 in the serum and brain samples were determined by HPLC on a CAPCELL PAK C18 column (SHISEIDO) with 50% acetonitrile (CPN-9), 40% acetonitrile (WN1316) or 45% acetonitrile (WN1303R, WN1312, and WN1315) in 10 mM phosphate buffer (pH 7.0).

## Cc1cc(C)c(N(C)CC(=O)Nc2nc(-c3ccccn3)c[nH]2)c(C)c1 [WN1316, 2-[mesityl(methyl)amino]-N-[4-(pyridin-2-yl)-1H-imidazol-2-yl] acetamide trihydrochloride]
HO-1 mRNA
  HO-1 mRNA in the lumbar spinal cord: transient induction
[1]
  protein complexing in serum: complexes with protein
[2]; C57BL/6N mice, intragastric, 50 mg/kg, n = 4, mean ± SD
  AUC0–8: Brain: 38.9±5.7 µg⋅h/g
[2]; WN1316 50 mg/kg vs CPN-9 100 mg/kg
  brain AUC0–8 relative to the level observed with CPN-9: about 39 fold
[2]; male, brain, read-out: Cmax in brain
  Cmax: 42.1 µM
[2]; male, mouse, brain / serum, oral 50 mg/kg, C57BL/6N, read-out: brain AUC0–8 relative to serum levels
  Kp: ~4
[2]; male, mouse, serum, po, C57BL/6N mice, intragastric, 50 mg/kg, n = 4, mean ± SD, read-out: AUC0–8: Serum
  AUC(0-t): 13600 ± 700 ng·h/mL
[2]; male, serum, read-out: Cmax in blood
  Cmax: 9.78 µM
[2]; mouse, in vivo
  BBB permeability (in words): prominent BBB permeability
[2]; oral 50 mg/kg, C57BL/6N
  clearance in both brain and serum: 8 h
